Measured values from patent US7799763B2, “Muscle-strengthening drugs and anti-inflammatory drugs” (Daicho Kikaku Incorporated Company, priority 2002, dated 2010).

Legend:
[1] = test system: patients with walking difficulties, proctoptosia, backaches, limb pains; experiment: Tablets of Example 4 administered once a day to aged patients with muscle disorders; type: in vivo, human; settings: single regular dose of drugs admixed with one of scymnol, isoflavone, and cholic acid
Excerpt: In Western medicine, it has been understood that proctoptosia and leg, lumbus and arm aches are attributable only to hematogenous disorders and resultant inflammation at local sites. […] Thus, it can be understood that these disorders are attributed to insufficient communication of brain commands to local sites and therefore the hematogenous disorders and onset of inflammation are problems caused by abnormal motions of muscles due to incomplete communication of brain commands.

[2] = test system: adrenaline secretion; experiment: Animal experiments using mice: secretomotory action on adrenaline (blood glucose levels); type: in vivo
Excerpt: No studies have been conducted on the efficacy of curcumin, zingerone, or shogaol on the stimulation of adrenaline secretion.

Row | Compound | effect on proctoptosia and leg, lumbus and arm aches [1] | blood glucose levels (secretomotory action on adrenaline) [2]
1 | C[C@H](CCC(=O)O)[C@H]1CC[C@H]2[C@@H]3[C@H](O)C[C@@H]4C[C@H](O)CC[C@]4(C)[C@H]3C[C@H](O)[C@]12C [cholic acid] | not significantly ameliorated | 
2 | COc1cc(/C=C/C(=O)/C=C(O)/C=C/c2ccc(O)c(OC)c2)ccc1O [curcumin] |  | remarkably elevated
3 | C[C@H](CC[C@@H](O)C(CO)CO)C1CCC2C3C(C[C@H](O)[C@@]21C)[C@@]1(C)CC[C@@H](O)CC1C[C@H]3O (some centres unmarked) [scymnol, Scymnol] | not significantly ameliorated | 
4 | CCCCC/C=C/C(=O)CCc1ccc(O)c(OC)c1 [shogaol, (6)-shogaol] |  | remarkably elevated
5 | COc1cc(CCC(C)=O)ccc1O [zingerone] |  | remarkably elevated
